# Measurements published in PMC12018770, “DEAD‐Box Helicase 6 Blockade in Brain‐Derived Aβ Oligomers From Alzheimer's Disease Patients Attenuates Neurotoxicity” (MedComm, 2025).
# “Also recorded” adds a separate entry of the source.
# How the values were obtained:
# Aβ42 oligomers [1] = test: Binding of biotin‐labeled short peptides to Aβ42 oligomers; settings: biotin-labeled peptide probes; bands at 30 and 10 kDa for binders
# Protocol: We characterized the molecular mechanisms by which DDX6 influences Aβ oligomer neurotoxicity using real‐time quaking‐induced conversion (RT‐QuIC) to determine whether DDX6 promotes the formation of Aβ fibrillar plaques and oligomers. […] Next, we performed dot blotting assays (Figure 7D,E) on the four treatment groups using the A11 antibody. […] We also assessed the cytotoxic effects of the four treatment groups on HT‐22 cell cultures using CCK‐8 assays. […] Specific gray values were calculated using Total Lab 100 (Nonlinear Dynamics, Newcastle upon Tyne, UK).
# (A) Cell counting kit‐8 (CCK‐8) cytotoxicity assay (n = 3). […] Total Lab 100 analysis software was used to calculate the percentage of gray values for 157 polypeptide spots.
# The Aβ42 peptide was obtained from Abcam (#ab120301, USA). Aβ42 was solubilized using 1 mM hexafluoroisopropanol (#105228; Sigma‐Aldrich, Germany) and evaporated overnight in a desiccator to form a dry film. The film was then dissolved in dimethyl sulfoxide (#D8418; Sigma‐Aldrich) to a concentration of 5 mM, mixed with phosphate‐buffered saline, and incubated for 72 h at 4°C. The GST‐DDX6 protein was synthesized by KMD Bioscience Biotech Co., Ltd. (Tianjin, China). The biotin‐labeled short peptide was synthesized by Hubei Qiangyao Biotechnology Co., Ltd. (Hubei, China).
# Aβ42 oligomers [2] = test: Peptide chip microarray of DDX6 peptides (1–157) with Aβ42 oligomers; settings: Aβ oligomers 2.0 µg/mL, overnight 4°C; ECL; > 30% indicates effective binding site; Total Lab 100
# Aβ oligomers in AD brain = test: IHC colocalization with Aβ oligomers in AD brain sections; parameters: species or system human; settings: AD7–AD10, n = 4; fluorescence scan over 120 µm
# From the text: To further validate the binding interactions between Aβ oligomers and the four proteins, we performed immunohistochemistry (IHC) on brain sections from four AD patients (AD7–AD10). We analyzed the colocalization of Aβ oligomers (red) with DDX6, JUP, HRNR, and DSP (all green), as well as 4',6‐diamidino‐2‐phenylindole (DAPI)‐stained nuclei (blue). […] We also performed fluorescence intensity scanning from left to right across stained brain tissue slices (120 µm). […] The combined results from co‐IP and IHC confirm that these four proteins can bind to Aβ oligomers.
# Sections were dewaxed, subjected to antigen retrieval, and blocked. They were then incubated with primary antibody (1:500) overnight at 4°C, followed by secondary antibody (1:200). Nuclei were stained with DAPI (Beyotime; C1002, Shanghai, China) for 10 min in the dark.
# [3] = system: human‐derived Aβ oligomers; test: Co-immunoprecipitation / Western blotting of protein-Aβ oligomer interaction in AD brain extracts; assay type: binding; settings: IgG isotype control
# From the text: After rigorous data analysis with SAINTexpress, four proteins (DDX6, DSP, JUP, and HRNR) were identified as potential Aβ oligomer‐binding partners. To validate these findings, we selected DSP and DDX6 as positive controls for co‐IP analysis; tau proteins were used as negative controls. Input samples, IP, co‐IP extracts, and IgG controls were adjusted to ensure equal amounts of protein for comparison. […] The IP enrichment effect was substantial for Aβ oligomers, DDX6, DSP, and tau proteins. In the co‐IP extracts for DDX6 and DSP, Aβ oligomers were detected at approximately 55 and 30 kDa, respectively (indicated by “ [drawing 1] ”). […] Isotype control IgG was used to exclude nonspecific binding (Figure 2A).
# A Co‐IP kit (Thermo Fisher Scientific; #26149, USA) was used for the assay. Antibodies (2 µg) were crosslinked to a reinforced AminoLink coupling resin (20 µL of beads) and immobilized on a Pierce spin column at room temperature. Protein extracts (1 mg) were added to the spin column and incubated overnight at 4°C with rotation. The spin column was then transferred to a new collection tube, and 60 µL of elution buffer (pH 2.8, containing tertiary amine) was added. The column was centrifuged, and the eluate was analyzed to detect the presence of the target protein.
# Protein concentrations in the co‐IP extracts were measured using a bicinchoninic acid assay (#23225, Thermo Fisher Scientific, USA). For each sample, 20 µL of protein was loaded, with the following amounts of human‐derived Aβ oligomers (AD1–AD6) used: 1.8 µg, 2.0 µg, 1.9 µg, 1.6 µg, 2.0 µg, and 1.8 µg, respectively. Equivalent amounts of co‐IP extracts were loaded into the remaining lanes. A 5× loading buffer was added to the protein samples to achieve a final concentration of 1×, and the samples were incubated at 95°C for 5 min [44]. […]
# B. The PVDF membrane was probed with the Aβ oligomer antibody (A11), indicating enrichment of Aβ oligomers (post-IP) with bands observed at 55 kDa and 30 kDa. Aβ oligomers were detected in the co-IP products of DDX6 (indicated by “✸”). […]
# [4] = system: human‐derived Aβ oligomers; test: AP-MS with SAINTexpress scoring of binding to human‐derived Aβ oligomers; settings: score 0 to 1; criteria SAINT score > 0.5 and fold change ≥ 2; AD1–AD6, n = 6
# From the text: Not all identified proteins bind to Aβ oligomers. Therefore, we used the SAINTexpress statistical method to screen for proteins most likely to interact with human‐derived Aβ oligomers. SAINTexpress assigns probability scores to factors interacting with target proteins, providing a value between 0 and 1, where higher scores indicate a greater likelihood of interaction with Aβ oligomers. Based on the analyzed results, we plotted the fold change on the x‐axis and SAINT scores on the y‐axis, with each point representing a protein. Proteins meeting the criteria of a SAINT score > 0.5 and fold change ≥ 2 were considered the most likely to bind Aβ oligomers (highlighted in red). Through rigorous analysis, we identified four proteins as binding partners (Figure 1C): DDX6 (SAINT score = 0.5783), DSP (SAINT score = 0.6608), JUP (SAINT score = 0.5846), and HRNR (SAINT score = 0.5246).
# An aliquot of each peptide mixture was loaded onto a trap column (in‐house‐fabricated column packed with a reversed‐phase ReproSil‐Pur C18‐AQ resin, 150 µm × 15 cm, C18, 3 µm, 100 Å, Dr. Maisch GmbH, Germany) connected to an analytical column (EASY‐Spray column, […] × 75 µm ID, PepMap RSLC C18, 2 µm, 100 Å, Thermo Scientific, USA) using the autosampler of an EASY‐nLC 1200 HPLC system (Thermo Fisher Scientific). The peptides were eluted using a gradient (solvent A: 0.1% formic acid in water; solvent B: 80% acetonitrile/0.1% formic acid in water; Sigma, Germany) directly into a Q Exactive Hybrid Quadrupole‐Orbitrap mass spectrometer (Thermo Fisher Scientific). The gradient program was as follows: 4%–8% solvent B over 2 min, 8%–28% solvent B over 43 min, 28%–40% solvent B over 10 min, 40%–95% solvent B over 1 min, and 95% solvent B for 10 min. The following mass spectrometry parameters were used: spray voltage, 2.2 kV; capillary temperature, 270°C; MS resolution, 70,000 at 400 m/z; MS precursor m/z range, 300.0–1800.0 m/z; activation type, high‐energy collision dissociation; normalized collision energy, 28.0; activation time, […]; and data‐dependent MS/MS, top 20 most intense peptide ions selected based on the preview scan in the Orbitrap.
# The raw MS files (Figure S5) were analyzed and searched against species‐specific protein databases using MaxQuant (v1.6.2.10). The following parameters were applied: maximum missed cleavages, 2; precursor ion mass tolerance, 20 ppm; and MS/MS tolerance, 20 ppm. Peptides and proteins were filtered to achieve a false discovery rate of < 1% using a target‐decoy database strategy, and only proteins with at least two unique peptides were reported. […] SAINT is a probabilistic method for scoring protein–protein interactions in AP‐MS experiments, enabling the identification of proteins most likely to interact with target proteins. […]
# AD patients = settings: cited from earlier work
molecule,measurement,setting,value
DYCLKRELLMGIFEMGWE [34–45],interaction with Aβ42 oligomers,Aβ42 oligomers [1],all four binding peptides interacted with Aβ oligomers
GIDIQAVNVVINFDF [compound 133],interaction with Aβ42 oligomers,Aβ42 oligomers [1],all four binding peptides interacted with Aβ oligomers
same,gray value of spot on peptide array,Aβ42 oligomers [2],exceeding 30%
GKSGAYLIPLLERLD [compound 49],interaction with Aβ42 oligomers,Aβ42 oligomers [1],all four binding peptides interacted with Aβ oligomers
same,gray value of spot on peptide array,Aβ42 oligomers [2],exceeding 30%
IKPIPSNIDKSLYVAEYHSEPVED [153–156],interaction with Aβ42 oligomers,Aβ42 oligomers [1],all four binding peptides interacted with Aβ oligomers
same,gray value of spot on peptide array,Aβ42 oligomers [2],exceeding 30%
"KPYEINLMEELTLKG [control peptide, reference compound]",interaction with Aβ42 oligomers,Aβ42 oligomers [1],did not interact with Aβ oligomers
desmoplakin [DSP],colocalization with Aβ oligomers,Aβ oligomers in AD brain,strong colocalization
same,binding to Aβ oligomers by co‐IP,[3],DDX6 and DSP were also detected in Aβ oligomer co‐IP extracts; also recorded: DSP was detected in the co-IP products of Aβ oligomers
same,SAINT score,[4],0.6608
hornerin [HRNR],colocalization with Aβ oligomers,Aβ oligomers in AD brain,strong colocalization
same,SAINT score,[4],0.5246
solanezumab [reference compound],efficacy in clinical trials (in words),"AD patients; ref [11], [12], [13], [14]",failed to demonstrate efficacy in improving cognitive function during key clinical trials
tau: tau proteins were used as negative controls [reference compound],binding to Aβ oligomers by co‐IP,[3],No apparent binding was observed; also recorded: tau was not detected in the co-IP products of Aβ oligomers
"lecanemab (antibody, chains of the INN, looked up, V domains shown) VH: EVQLVESGGGLVQPGGSLRLSCSASGFTFSSFGMHWVRQAPGKGLEWVAYISSGSSTIYYGDTVKGRFTISRDNAKNSLFLQMSSLRAEDTAVYYCAREGGYYYGRSYYTMDYWGQGTTVTVSS VL: DVVMTQSPLSLPVTPGAPASISCRSSQSIVHSNGNTYLEWYLQKPGQSPKLLIYKVSNRFSGVPDRFSGSGSGTDFTLRISRVEAEDVGIYYCFQGSHVPPTFGPGTKLEIK","brain shrinkage, share of AD patients","AD patients; after 18 months of treatment, ref [16]",approximately 28%
same,brain hemorrhage,"AD patients; early AD patients, ref [15]",17.3%
same,edema or effusion,"AD patients; early AD patients, ref [15]",12.6%
same,headaches,"AD patients; early AD patients, ref [15]",11.1%
same,delay of cognitive decline,"AD patients; early‐stage AD patients, ref [15]",27%
same,severe side effects (in words),"AD patients; some patients, ref [15], [16]","severe side effects, including brain hemorrhage, brain shrinkage, and even death"
junction plakoglobin (protein) MEVMNLMEQPIKVTEWQQTYTYDSGIHSGANTCVPSVSSKGIMEEDEACGRQYTLKKTTTYTQGVPPSQGDLEYQMSTTARAKRVREAMCPGVSGEDSSLLLATQVEGQATNLQRLAEPSQLLKSAIVHLINYQDDAELATRALPELTKLLNDEDPVVVTKAAMIVNQLSKKEASRRALMGSPQLVAAVVRTMQNTSDLDTARCTTSILHNLSHHREGLLAIFKSGGIPALVRMLSSPVESVLFYAITTLHNLLLYQEGAKMAVRLADGLQKMVPLLNKNNPKFLAITTDCLQLLAYGNQESKLIILANGGPQALVQIMRNYSYEKLLWTTSRVLKVLSVCPSNKPAIVEAGGMQALGKHLTSNSPRLVQNCLWTLRNLSDVATKQEGLESVLKILVNQLSVDDVNVLTCATGTLSNLTCNNSKNKTLVTQNSGVEALIHAILRAGDKDDITEPAVCALRHLTSRHPEAEMAQNSVRLNYGIPAIVKLLNQPNQWPLVKATIGLIRNLALCPANHAPLQEAAVIPRLVQLLVKAHQDAQRHVAAGTQQPYTDGVRMEEIVEGCTGALHILARDPMNRMEIFRLNTIPLFVQLLYSSVENIQRVAAGVLCELAQDKEAADAIDAEGASAPLMELLHSRNEGTATYAAAVLFRISEDKNPDYRKRVSVELTNSLFKHDPAAWEAAQSMIPINEPYGDDMDATYRPMYSSDVPLDPLEMHMDMDGDYPIDTYSDGLRPPYPTADHMLA,colocalization with Aβ oligomers,Aβ oligomers in AD brain,strong colocalization
same,SAINT score,[4],0.5846
